Laboratory results taken from publication PMC5634478, “Usefulness of kidney slices for functional analysis of apical reabsorptive transporters” (Scientific Reports, 2017).
Like-named read-outs stand apart in the source and are kept apart here. One block for each compound: values may come before it. Where a SMILES comes first, the peptide text is derived from it.

What was measured:
Octn1 = target: T1, Octn1 (Mus musculus, UniProt Q9Z306); experiment: Uptake of [3H]ergothioneine by mice kidney slices; format: in vitro ADME; settings: for inhibition of [3H]ergothioneine uptake by kidney slices at low inhibitor concentration: 0.5 mM carnitine, 0.1 mM cimetidine; for effect on Na+-dependent uptake of [3H]ergothioneine into mice kidney slices: Fig. 3A
T1 construct: between native Octn1 in kidney tissues and transporter-gene transfected cells; from tissue; host or cells: mouse kidney slices (0.3 mm; male ICR mice, or C57BL/6J-backcrossed wild-type and Octn1-/- mice)
T1 sequence (Q9Z306 1-553): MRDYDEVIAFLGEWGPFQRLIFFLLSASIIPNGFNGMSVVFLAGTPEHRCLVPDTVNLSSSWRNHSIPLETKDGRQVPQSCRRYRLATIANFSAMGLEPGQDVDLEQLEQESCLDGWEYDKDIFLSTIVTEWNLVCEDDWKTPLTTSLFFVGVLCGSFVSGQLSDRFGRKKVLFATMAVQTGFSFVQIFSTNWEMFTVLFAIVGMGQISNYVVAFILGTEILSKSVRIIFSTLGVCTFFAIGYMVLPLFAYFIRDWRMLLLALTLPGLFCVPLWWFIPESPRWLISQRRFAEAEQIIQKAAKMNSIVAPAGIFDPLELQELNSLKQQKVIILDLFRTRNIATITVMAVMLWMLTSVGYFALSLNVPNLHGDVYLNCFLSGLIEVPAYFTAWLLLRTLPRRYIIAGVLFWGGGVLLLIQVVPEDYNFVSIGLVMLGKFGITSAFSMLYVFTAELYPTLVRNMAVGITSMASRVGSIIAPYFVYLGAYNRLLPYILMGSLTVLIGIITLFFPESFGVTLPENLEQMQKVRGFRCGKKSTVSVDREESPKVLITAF
Description: (§1) Uptake studies using mouse kidney slices were carried out as described in a previous report after slight modifications. The slices of whole kidneys were prepared with a microslicer (Zero 1; Dosaka EM, Kyoto, Japan), and the renal pelvis portion was removed. Prepared slices (0.3 mm thick) of whole kidneys from male mice were immediately put in ice-cold oxygenated transport buffer (130 mM NaCl, 4.8 mM KCl, 1.2 mM CaCl2, 1.2 mM MgSO4, 1.2 mM KH2PO4 and 25 mM HEPES, adjusted to pH 7.4). When uptake was conducted in Na^+-free condition, NaCl was replaced with N-methyl-D-glucamine (NMG) in transport buffer. Three or four slices from one mouse, weighing each slice 2 to 10 mg, were randomly selected and then pre-incubated in a 24-well plate with 1.0 ml of oxygenated transport buffer in each well at 37 °C for 5 min. After pre-incubation, the kidney slices were put into transport buffer containing radiolabeled substrates with or without inhibitors to initiate the uptake reaction. The uptake reactions were carried out at 37 °C for an appropriate time, and then each slice was rapidly removed from the transport buffer, washed twice in ice-cold transport buffer, blotted on filter paper and weighed. For measurement of radiolabeled compounds, the slices were dissolved in 0.15 ml of 1 N NaOH. Then, the lysate was neutralized with HCl. The apparent uptake of [^14C]inulin was evaluated in independent experiments (n = 3) to estimate the volume of water adhering to the kidney slices after an incubation. […] Viability of the isolated kidney slices was assessed as described in the supplemental file.
Radioactivity was quantified with a liquid scintillation counter (Aloka, Tokyo, Japan). To calculate kinetic parameters for carrier-mediated uptake of test substrates, uptake rate was fitted to eq. (1) by means of a nonlinear least-squares regression analysis using MULTI program[36]:1 v=Vmax×s/(Km+s) where v, s, K m, and V max are the uptake rate of substrate, the substrate concentration in the medium, the apparent Michaelis-Menten constant, and the maximal uptake rate, respectively.
(§2) The half-inhibitory concentration (IC 50) values of inhibitors were obtained by examining their inhibitory effects on uptake of test substrates according to the following equation (2):2 %ofcontrol=IC50/(IC50+I) where % of control represents inhibition rate in the presence of inhibitors and I is inhibitor concentration.

Mate1 = settings: read-out: IC 50 for Mate1; cited from earlier work
Oct2 = settings: read-out: IC 50 for Oct2; cited from earlier work
Mouse Octn1 = Mouse Octn1 (Mus musculus, UniProt Q9Z306); settings: Octn1-expressing HEK293 cells, previous report, cited from earlier work
Pept1/2 = experiment: Uptake of [3H]Gly-Sar by mice kidney slices; format: in vitro ADME; settings: for effect on uptake of [3H]Gly-Sar by mice kidney slices: 5 mM Gly-Leu, 100 μM cephadroxil, 37 °C
Description: Uptake studies using mouse kidney slices were carried out as described in a previous report after slight modifications. The slices of whole kidneys were prepared with a microslicer (Zero 1; Dosaka EM, Kyoto, Japan), and the renal pelvis portion was removed. Prepared slices (0.3 mm thick) of whole kidneys from male mice were immediately put in ice-cold oxygenated transport buffer (130 mM NaCl, 4.8 mM KCl, 1.2 mM CaCl2, 1.2 mM MgSO4, 1.2 mM KH2PO4 and 25 mM HEPES, adjusted to pH 7.4). When uptake was conducted in Na^+-free condition, NaCl was replaced with N-methyl-D-glucamine (NMG) in transport buffer. Three or four slices from one mouse, weighing each slice 2 to 10 mg, were randomly selected and then pre-incubated in a 24-well plate with 1.0 ml of oxygenated transport buffer in each well at 37 °C for 5 min. After pre-incubation, the kidney slices were put into transport buffer containing radiolabeled substrates with or without inhibitors to initiate the uptake reaction. The uptake reactions were carried out at 37 °C for an appropriate time, and then each slice was rapidly removed from the transport buffer, washed twice in ice-cold transport buffer, blotted on filter paper and weighed. For measurement of radiolabeled compounds, the slices were dissolved in 0.15 ml of 1 N NaOH. Then, the lysate was neutralized with HCl. The apparent uptake of [^14C]inulin was evaluated in independent experiments (n = 3) to estimate the volume of water adhering to the kidney slices after an incubation. In this study, observed extracellular adhered water space was 0.128 ± 0.004 μL/5 min/mg kidney. Viability of the isolated kidney slices was assessed as described in the supplemental file.
Radioactivity was quantified with a liquid scintillation counter (Aloka, Tokyo, Japan). To calculate kinetic parameters for carrier-mediated uptake of test substrates, uptake rate was fitted to eq. […]

PEPT1 = test system: PEPT1; set-up: method as in PMID 11004485; settings: cited from earlier work
PEPT2 = test system: PEPT2; set-up: method as in PMID 15862787; settings: cited from earlier work
Sglt2 = test system: Sglt2; set-up: method as in PMID 22139434; settings: cited from earlier work
Mouse Octn2 [1] = target: T2, Mouse Octn2 (Mus musculus, UniProt Q9Z0E8); experiment: Uptake of [3H]carnitine by Octn2-expressing HEK293 cells; format: cell-based; settings: [3H]carnitine 1.0 μM, 15 sec, mock subtracted, read-out: IC 50 for carnitine uptake, Expression Model
T2 construct: expressed in transfected cells; host or cells: HEK293
T2 sequence (Q9Z0E8 1-557): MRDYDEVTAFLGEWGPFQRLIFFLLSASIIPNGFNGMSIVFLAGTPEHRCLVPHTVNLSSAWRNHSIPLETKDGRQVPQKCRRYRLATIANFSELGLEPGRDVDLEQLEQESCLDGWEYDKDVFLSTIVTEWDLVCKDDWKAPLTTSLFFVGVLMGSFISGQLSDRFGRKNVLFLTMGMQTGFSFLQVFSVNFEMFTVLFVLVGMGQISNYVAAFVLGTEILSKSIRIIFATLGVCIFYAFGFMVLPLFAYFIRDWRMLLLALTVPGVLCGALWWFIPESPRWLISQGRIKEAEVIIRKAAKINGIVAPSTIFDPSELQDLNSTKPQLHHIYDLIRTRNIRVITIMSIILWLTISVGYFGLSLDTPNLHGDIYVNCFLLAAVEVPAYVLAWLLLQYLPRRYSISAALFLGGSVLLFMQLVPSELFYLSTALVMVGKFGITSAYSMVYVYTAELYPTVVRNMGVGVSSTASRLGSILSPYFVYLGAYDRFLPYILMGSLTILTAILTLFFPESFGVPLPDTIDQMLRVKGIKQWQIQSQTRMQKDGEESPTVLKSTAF

Octn2 = target: T3, Octn2 (Mus musculus, UniProt Q9Z0E8); experiment: Uptake of [3H]carnitine by mice kidney slices; format: in vitro ADME
T3 construct: from tissue; host or cells: mouse kidney slices (male ICR mice)
T3 sequence (Q9Z0E8 1-557): T2 sequence (Q9Z0E8 1-557)
Description: as §1, with “The uptake reactions were carried out at 37 °C for an appropriate time, and then each slice was rapidly removed from the transport buffer, washed twice in ice-cold transport buffer, blotted on filter paper and weighed. For measurement of radiolabeled compounds, the slices were dissolved in 0.15 ml of 1 N NaOH. Then, the lysate was neutralized with HCl.” left out, “file. […]” for “file.”

Mouse Octn2 [2] = target: T2, Mouse Octn2; set-up: method as in PMID 11010964; settings: cited from earlier work
Sglt1/2 = experiment: Uptake of [14C]αMG by mice kidney slices; format: in vitro ADME; settings: for effect on [14C]αMG uptake by kidney slices, inhibitor alone: 30 mM galactose, D-glucose free
Description: as §1, §2

[3] = [3H]ergothioneine 1.0 μM, 3 min

inhibition of [3H]ergothioneine uptake by kidney slices at low inhibitor concentration (Octn1): no significant inhibition
effect on Na+-dependent uptake of [3H]ergothioneine into mice kidney slices (Octn1; [3]): significantly reduced
SMILES: CN/C(=N/CCSCc1nc[nH]c1C)NC#N [Cimetidine]
IC50 (Mate1): 16.3 µM
IC50 (Oct2): 8 µM

K m in kidney slices relative to K m in Octn1-expressing HEK293 cells (Octn1; 81.5 μM versus 4.68 μM): 17 times
uptake in the presence of Na+ versus absence of Na+ (Octn1; [3H]ergothioneine 1.0 μM, pH 7.4, 37 °C, 1-20 min): significantly higher
K m of ergothioneine uptake, Mice Kidney Slice (Octn1; pH 7.4, 37 °C, 3 min, 1-250 μM): 69.8 ± 27.6 µM
SMILES: C[N+](C)(C)[C@@H](Cc1c[nH]c(=S)[nH]1)C(=O)[O-] [Ergothioneine, ergothioneine]
K m of ergothioneine, Expression Model (Mouse Octn1): 4.68[22] µM
K m of ergothioneine, Expression Model (Mouse Octn1; listed as ergothioneine): 4.68 µM
uptake of [3H]ergothioneine in 1 hr after removal of kidney compared with 25 min (Octn1; slice viability, pre-incubation pH 7.4, 37 °C): 69.0 ± 6.6%

SMILES: CC(C)CC(NC(=O)CN)C(=O)O (stereo not shown) [Gly-Leu, glycyl-leucine]
effect on uptake of [3H]Gly-Sar by mice kidney slices (Pept1/2): decreased

SMILES: CN(CC(=O)O)C(=O)CN [Gly-Sar, glycylsarcosine] (HELM PEPTIDE1{G.[Sar]}$$$$V2.0)
K m of Gly-Sar, Expression Model (PEPT1) (PEPT1): 600 (PEPT1)[37] µM
K m of Gly-Sar uptake, Mice Kidney Slice (Pept1/2; pH 7.4, 37 °C, 5 min, 10-300 μM): 161 ± 17 µM
K m of Gly-Sar, Expression Model (PEPT2) (PEPT2): 79.5 (PEPT2)[31] µM
K m of Gly-Sar, Expression Model (PEPT2) (PEPT2; listed as [^3H]Gly-Sar): 79.5 µM

IC50 (Mouse Octn2 [1]): 94.1 ± 8.9 µM
IC50 (Octn2): 363 ± 142 µM
SMILES: COc1ccc(CCN(C)CCCC(C#N)(c2ccc(OC)c(OC)c2)C(C)C)cc1OC (stereo not shown) [Verapamil]

uptake in the presence of Na+ versus absence of Na+ (Octn2; [3H]carnitine 1.3 nM, pH 7.4, 37 °C, 1-20 min): significantly higher
inhibition of [3H]ergothioneine uptake by kidney slices at low inhibitor concentration (Octn1): no significant inhibition
effect on Na+-dependent uptake of [3H]ergothioneine into mice kidney slices (Octn1; [3]): significantly reduced
SMILES: C[N+](C)(C)CC(O)CC(=O)[O-] (stereo not shown) [carnitine]
K m value of carnitine for Octn2 (Mouse Octn2 [2]): 22.1 µM

SMILES: CC1=C(C(=O)O)N2C(=O)[C@@H](NC(=O)[C@H](N)c3ccc(O)cc3)[C@H]2SC1 [cephadroxil]
effect on uptake of [3H]Gly-Sar by mice kidney slices (Pept1/2): decreased

SMILES: CCOc1ccc(Cc2cc([C@@H]3O[C@H](CO)[C@@H](O)[C@H](O)[C@H]3O)ccc2Cl)cc1 [dapagliflozin]
effect on [14C]αMG uptake with 30 mM galactose or 1 mM D-glucose simultaneously added (Sglt1/2; 50 nM dapagliflozin, 5 min): decreased
effect on αMG uptake in the presence of 10 mM D-glucose (Sglt1/2; 10 mM D-glucose, Sglt1 and Sglt2 saturated): no further decrease
effect on [14C]αMG uptake by kidney slices, inhibitor alone (Sglt1/2; 50 nM dapagliflozin, 5 min): not affected

SMILES: O=C[C@H](O)[C@@H](O)[C@@H](O)[C@H](O)CO [galactose, D-galactose]
effect on [14C]αMG uptake by kidney slices, inhibitor alone (Sglt1/2; 50 nM dapagliflozin, 5 min): decreased
